Laboratory results from PMC6015718, “Effect of Polyvalence on the Antibacterial Activity of a Synthetic Peptide Derived from Bovine Lactoferricin against Healthcare-Associated Infectious Pathogens” (BioMed Research International, 2018).
Values joined by “and” are separate entries in the source; they are usually repeats but may differ in a detail not shown here. Identical values can stand only once. Like-named read-outs stand apart in the source and are kept apart here. Positions of bridges follow the written chain, without caps; N, C: chain ends. Non-standard residues stand in square brackets, D forms with d. Residues, ends and D or L forms follow the SMILES beside them. Chains are numbered I, II in the order given. Ahx = NCCCCCC(=O)O

Tests used:
Assay type in all cases: cell-based
[1] = system: Klebsiella pneumoniae ATCC 13883 (sensitive)
Description: (§1) All microorganisms were purchased from the American Type Culture Collection (ATCC). To determine the antibacterial activity of synthetic peptides against HCAI bacteria, the Staphylococcus aureus strains ATCC 25923 and ATCC 33591 were employed as sensitive and resistant strains, respectively, of a Gram-positive microorganisms species, and Klebsiella pneumoniae ATCC 13883 and ATCC 700603 as sensitive and resistant strains of a Gram-negative species.
(§2) The antibacterial activity assay for peptides and controls was performed according to the National Committee for Clinical Laboratory Standards method M7-A7 [11]. MIC and MBC values were determined using a broth microdilution and growth inhibition method with some modification. Briefly, MIC assays were performed by liquid inhibition growth assay in an untreated sterile 96-well flat-bottom tissue culture plate. Bacteria were cultured overnight on Mueller-Hinton agar (MHA). Three colonies were transferred to 8 mL of Mueller-Hinton broth (MHB) and incubated at 37°C until the mid-exponential phase of growth. The turbidity of the cultures was measured and adjusted spectrophotometrically to McFarland standard 0.5, then diluted to a final concentration of […]. Synthetic antibacterial peptide candidate stock solutions were diluted to final concentrations per well of 200, 100, 50, 25, 12.5, and 6.25 μM. […]
(§3) Wells containing MHB with bacterial inoculum only served as bacterial growth controls. Additional controls included MHB alone and MHB with ciprofloxacin (CIP) (2 μg/mL) and bacteria as a positive control. The microplate was incubated for 24 h at 37°C, and growth inhibition was examined by monitoring the optical density at 620 nm (OD620). MIC was defined as the lowest peptide concentration that inhibited bacteria growth >90%.

[2] = system: Klebsiella pneumoniae ATCC 700603 (resistant)
Description: as §1, §2, §3

[3] = system: Staphylococcus aureus ATCC 25923 (sensitive)
Description: as §1, §2, §3

[4] = system: Staphylococcus aureus ATCC 33591 (resistant)
Description: as §1, §2, §3

[5] = system: Klebsiella pneumoniae ATCC 13883 (sensitive); remark: listed apart in the source
Description: as §1
(§4) To determine the MBC, an aliquot from each well of the MIC assay was spread onto MHA. After 18 h at 37°C, the concentration that inhibited bacterial growth was determined. Each of these tests was performed four times. MBC was defined as the lowest concentration of peptide that reduced the number of bacteria by 99.9% in vitro [12].

[6] = system: Klebsiella pneumoniae ATCC 700603 (resistant); remark: listed apart in the source
Description: as §1, §4

[7] = system: Staphylococcus aureus ATCC 25923 (sensitive); remark: listed apart in the source
Description: as §1, §4

[8] = system: Staphylococcus aureus ATCC 33591 (resistant); remark: listed apart in the source
Description: as §1, §4

human erythrocytes = experiment: Haemolytic activity; conditions: 6.25-100 μM peptide; human erythrocytes 2% haematocrit in PBS, 2 h 37°C, OD492; n = 2
Protocol: Human erythrocytes collected from the blood samples of healthy humans were harvested by centrifugation for 7 min at 162 ×g and washed three times in phosphate-buffered saline (PBS). The erythrocytes (2% haematocrit in PBS) were incubated with peptide molecules at several concentrations (6.25, 12.5, 25, 50, and 100 μM), for 2 h at 37°C. PBS was used as a negative control, and sterile distilled water was used as a positive control for haemolysis (100% of haemolysis). The plate was subsequently centrifuged at 1459 ×g for 10 min at 4°C. Aliquots of the supernatants of each well (75 μL) were carefully transferred to a new sterile 96-well plate, and haemolytic activity was evaluated by measuring the OD492 using an Asys Expert Plus Microplate reader. The experiments were performed in duplicate, and peptide haemolysis activity was calculated.
Lastly, to evaluate the effects of the peptides on normal human erythrocytes, their haemolysis activity was investigated (Figure 6). The percentage of haemolytic activity on human red blood cells after 2 hours was determined via the standard microtitre dilution method. The peptide concentration is reported as μM.

**Q.** Which results are given for `N=C(N)NCCC[C@H](NC(=O)[C@H](Cc1c[nH]c2ccccc12)NC(=O)[C@H](CCC(N)=O)NC(=O)[C@H](Cc1c[nH]c2ccccc12)NC(=O)[C@H](CCCNC(=N)N)NC(=O)[C@@H](N)CCCNC(=N)N)C(=O)NCCCC[C@H](NC(=O)[C@H](CCCNC(=N)N)NC(=O)[C@H](Cc1c[nH]c2ccccc12)NC(=O)[C@H](CCC(N)=O)NC(=O)[C@H](Cc1c[nH]c2ccccc12)NC(=O)[C@H](CCCNC(=N)N)NC(=O)[C@@H](N)CCCNC(=N)N)C(=O)NCCCCCC(N)=O` [Dimeric] (I: H-RRWQWRK[Ahx]-NH2 / II: H-RRWQWR; amide I:7-II:C; N-terminus assumed)?
**A.** MIC ([1]; ATCC 13883, 24 h): 12.5 µM; MIC ([1]; K. pneumoniae ATCC 13883 sensitive, MHB, 24 h 37°C, OD620, >90% inhibition, average of four independent experiments in duplicate): 27 µg/mL; MIC ([1]; K. pneumoniae ATCC 13883 sensitive, MHB, 24 h 37°C, OD620, >90% inhibition, average of four independent experiments in duplicate, listed as dimeric): ≥ 27 µg/mL; MIC ([1]; K. pneumoniae ATCC 13883 sensitive, value in parentheses, MHB, 24 h 37°C, OD620, >90% inhibition): ≥ 12,5 µM; concentration at which antibacterial activity was exhibited (dose-response profile) ([1]; K. pneumoniae sensitive strain, Figure 3): ≤ 27 μg/mL and ≤ 12,5 μM; MIC ([2]; ATCC 700603, 24 h): 12.5 µM; MIC ([2]; K. pneumoniae ATCC 700603 resistant, MHB, 24 h 37°C, OD620, >90% inhibition, average of four independent experiments in duplicate): 27 µg/mL; MIC ([2]; K. pneumoniae ATCC 700603 resistant, MHB, 24 h 37°C, OD620, >90% inhibition, average of four independent experiments in duplicate, listed as dimeric): ≥ 27 µg/mL; MIC ([2]; K. pneumoniae ATCC 700603 resistant, value in parentheses, MHB, 24 h 37°C, OD620, >90% inhibition): ≥ 12,5 µM; concentration at which antibacterial activity was exhibited (dose-response profile) ([2]; K. pneumoniae resistant strain, Figure 3): ≤ 27 μg/mL and ≤ 12,5 μM; MIC ([3]; ATCC 25923, 24 h): 6.25 µM; MIC ([3]; S. aureus ATCC 25923 sensitive, MHB, 24 h 37°C, OD620, lowest concentration inhibiting growth >90%, average of four independent experiments in duplicate): 14 µg/mL; MIC ([3]; S. aureus ATCC 25923 sensitive, MHB, 24 h 37°C, OD620, lowest concentration inhibiting growth >90%, average of four independent experiments in duplicate, listed as dimeric): ≥ 14 µg/mL; MIC ([3]; S. aureus ATCC 25923 sensitive, value in parentheses, MHB, 24 h 37°C, OD620, >90% inhibition, average of four independent experiments in duplicate): ≥ 6.25 µM; concentration at which antibacterial activity was displayed (dose-response profile) ([3]; S. aureus sensitive strain, Figure 2): ≥ 14 μg/mL and ≥ 6.25 μM; MIC ([4]; ATCC 33591, 24 h): 25 µM; MIC ([4]; S. aureus ATCC 33591 resistant, MHB, 24 h 37°C, OD620, >90% inhibition, average of four independent experiments in duplicate): 55 µg/mL; MIC ([4]; S. aureus ATCC 33591 resistant, MHB, 24 h 37°C, OD620, >90% inhibition, average of four independent experiments in duplicate, listed as dimeric): ≥ 55 µg/mL; MIC ([4]; S. aureus ATCC 33591 resistant, value in parentheses, MHB, 24 h 37°C, OD620, >90% inhibition): ≥ 25 µM; MBC ([5]; ATCC 13883, 18 h): 25 µM; MBC ([5]; K. pneumoniae ATCC 13883 sensitive, MHA, 18 h 37°C, 99.9% reduction): 55 µg/mL; MBC as a function of the MBC of the tetrameric peptide ([5]; K. pneumoniae sensitive strain, from concentrations in μg/mL): 0.5 x MBC; MBC ([6]; ATCC 700603, 18 h): 100 µM; MBC ([6]; K. pneumoniae ATCC 700603 resistant, MHA, 18 h 37°C, 99.9% reduction): 220 µg/mL; MBC as a function of the MBC of the tetrameric peptide ([6]; K. pneumoniae resistant strain, from concentrations in μg/mL): 1.9 x MBC; MBC ([7]; ATCC 25923, 18 h): 50 µM; MBC ([7]; S. aureus ATCC 25923 sensitive, MHA, 18 h 37°C, 99.9% reduction, average of four independent experiments): 110 µg/mL; MBC ([7]; S. aureus ATCC 25923 sensitive, MHA, 18 h 37°C, 99.9% reduction, average of four independent experiments, listed as dimeric): ≥ 110 µg/mL; MBC ([7]; S. aureus ATCC 25923 sensitive, value in parentheses, MHA, 18 h 37°C, 99.9% reduction): ≥ 50 µM; MBC as a function of the MBC of the tetrameric peptide ([7]; S. aureus sensitive strain, from concentrations in μg/mL): 1.9 x MBC; MBC ([8]; ATCC 33591, 18 h): 50 µM; MBC ([8]; S. aureus ATCC 33591 resistant, MHA, 18 h 37°C, 99.9% reduction): 110 µg/mL; MBC ([8]; S. aureus ATCC 33591 resistant, MHA, 18 h 37°C, 99.9% reduction, listed as dimeric): ≥ 110 µg/mL; MBC ([8]; S. aureus ATCC 33591 resistant, value in parentheses, MHA, 18 h 37°C, 99.9% reduction): ≥ 50 µM; MBC as a function of the MBC of the tetrameric peptide ([8]; S. aureus resistant strain, from concentrations in μg/mL): 1.9 x MBC; haemolysis activity over the concentrations tested (human erythrocytes): < 5%
